Assay results from ChEMBL document CHEMBL5233209, “A concise review of recent advances in anti-heart failure targets and its small molecules inhibitors in recent years” (Eur J Med Chem, 2020).

Legend:
[1] = Tmax in human plasma; format: ADME, cell-free
[2] = Half life in human; format: ADME
[3] = target: cGMP-specific 3',5'-cyclic phosphodiesterase (Homo sapiens, UniProt O76074); assay: Inhibition of PDE-5A (unknown origin)
Neprilysin = Neprilysin (Homo sapiens, UniProt P08473); assay: Inhibition of neutral endopeptidase (unknown origin)
Chain of Neprilysin (P08473 whole entry): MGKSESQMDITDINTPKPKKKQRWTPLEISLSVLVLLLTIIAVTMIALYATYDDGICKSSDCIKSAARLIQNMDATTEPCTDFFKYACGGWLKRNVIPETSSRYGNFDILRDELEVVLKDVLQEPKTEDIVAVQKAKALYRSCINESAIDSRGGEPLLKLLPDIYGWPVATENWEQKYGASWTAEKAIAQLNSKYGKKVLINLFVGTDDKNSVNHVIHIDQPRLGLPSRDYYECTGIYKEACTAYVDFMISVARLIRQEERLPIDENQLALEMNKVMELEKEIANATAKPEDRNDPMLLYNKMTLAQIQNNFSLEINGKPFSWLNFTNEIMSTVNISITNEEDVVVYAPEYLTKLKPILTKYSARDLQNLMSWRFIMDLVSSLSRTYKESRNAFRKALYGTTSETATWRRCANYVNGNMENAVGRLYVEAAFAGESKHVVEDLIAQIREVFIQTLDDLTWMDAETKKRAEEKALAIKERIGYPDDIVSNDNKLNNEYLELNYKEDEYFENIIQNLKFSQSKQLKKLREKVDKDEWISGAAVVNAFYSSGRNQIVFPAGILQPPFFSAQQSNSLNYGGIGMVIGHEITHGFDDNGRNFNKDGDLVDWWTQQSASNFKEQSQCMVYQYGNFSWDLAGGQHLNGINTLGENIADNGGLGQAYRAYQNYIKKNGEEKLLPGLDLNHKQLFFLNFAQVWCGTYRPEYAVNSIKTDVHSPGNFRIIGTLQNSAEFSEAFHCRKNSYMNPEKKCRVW

SMILES | Tmax [1] | half-life [2] | IC50 [3] | further results
CCCCC(=O)N(Cc1ccc(-c2ccccc2-c2nnn[nH]2)cc1)[C@H](C(=O)O)C(C)C | 1.6 h | 12 h | – | –
CC(C)=CCc1c(O)c2c(c3c1OC(C)(C)C=C3)CC=C(c1ccc3c(c1)OCCO3)C2=O | – | – | 2.67 µmol | –
CCCCC(=O)N(Cc1ccc(-c2ccccc2-c2nnn[n-]2)cc1)[C@H](C(=O)[O-])C(C)C.CCOC(=O)[C@H](C)C[C@@H](Cc1ccc(-c2ccccc2)cc1)NC(=O)CCC(=O)[O-].O.O.[Na+].[Na+].[Na+] | – | – | – | IC50 (Neprilysin): 5 nM
CC(C)=CCC1=C(O)c2c(occ(-c3ccc(O[N+](=O)[O-])cc3)c2=O)C2C=CC(C)(C)OC12 (configuration not stated) | – | – | 0.5 µmol | –
C[C@H](C[C@@H](Cc1ccc(-c2ccccc2)cc1)NC(=O)CCC(=O)O)C(=O)O [LBQ-657] | – | 21 h | – | –
CCOC(=O)[C@H](C)C[C@@H](Cc1ccc(-c2ccccc2)cc1)NC(=O)CCC(=O)O [SACUBITRIL] | 0.5 h | – | – | –
